Holding throughout (assay type): binding
Data set [1] relates to single-stranded RNA: 5′-r(ACGAGAACAUCC)-3′ (SEQ ID NO: 11). Nature of the data set: Melting temperature (Tm) measurement, double strand-forming ability, with single-stranded RNA. As to conditions: duplex with single-stranded RNA SEQ ID NO: 11; for Tm: 10 mM phosphate buffer (pH7.0), 200 mM NaCl, 2.5 μM each oligonucleotide; for ΔTm/mod.: change per modification vs natural oligonucleotide. How it is done: (§1) A sample solution ([…]) with final concentrations of 10 mM phosphate buffer (pH7.0), 200 mM sodium chloride, and 2.5 μM each oligonucleotide was immersed in boiling water and slowly cooled to room temperature. The sample solution was cooled to 20° C., and the measurement was started. The temperature was raised to 90° C. at a rate of 0.5° C. per minute, and the absorbance at 260 nm was plotted at intervals of 0.5° C. All Tm values were calculated by the midline method and the average of three independent measurement results was taken.
(§2) conditions: 10 mM sodium phosphate buffer (pH7.0) containing 200 mM NaCl, […] of each strand

Data set [2] relates to single-stranded DNA: 5′-d(ACGAGAACATCC)-3′ (SEQ ID NO: 12). Put plainly: Melting temperature (Tm) measurement, double strand-forming ability, with single-stranded DNA. To be noted: duplex with single-stranded DNA SEQ ID NO: 12; for Tm: 10 mM phosphate buffer (pH7.0), 200 mM NaCl, 2.5 μM each oligonucleotide; for ΔTm/mod.: change per modification vs natural oligonucleotide. How it is done: as §1, §2

In data set [3] the test system is double-stranded hairpin DNA: 5′-d(GGCAGAAGAAAAAGAGACGC)-C18 spacer-d(GCGTCTCTTTTTCTTCTGCC)-3′ (SEQ ID NO: 23). Nature of the data set: Melting temperature (Tm) measurement, triple strand-forming ability, with double-stranded hairpin DNA. As to conditions: triplex with double-stranded hairpin DNA; for ΔTm/mod.: change per modification vs natural oligonucleotide; for Tm: footnote: 10 mM sodium phosphate buffer (pH 7.0), 200 mM NaCl, 5 mM MgCl2. How it is done:
[…] The sample solution was cooled to 15° C., and the measurement was started. The temperature was raised to 90° C. at a rate of 0.5° C. per minute, and the absorbance at 260 nm was plotted at intervals of 0.5° C. All Tm values were calculated by the midline method and the average of three independent measurement results was taken.

For “5′-GGAZGZTCTCGT-3′: modified oligonucleotide with two separated Z modifications (DNA GGATGTTCTCGT; two Z modified nucleotides; misc_difference (4)..(4) ENA; misc_difference (6)..(6) ENA)”, the Tm in data set [1] is 65 °C; in data set [2], 57 °C. Further, the ΔTm/mod. entry in data set [1] was “+6.5 °C”; in data set [2], “+3.0 °C”.

In the case of “5′-GGATGYYCTCGT-3′: modified oligonucleotide with two consecutive Y modifications (DNA GGATGTTCTCGT; two Y modified nucleotides; misc_difference (6)..(6) LNA; misc_difference (7)..(7) LNA)”, in data set [1], the Tm came out at 64 °C and the ΔTm/mod. result was “+6.0 °C”. Besides, in data set [2], the Tm came out at 57 °C and the ΔTm/mod. result is “+3.0 °C”.

With “5′-GGATGXXCTCGT-3′: modified oligonucleotide with two consecutive X modifications (DNA GGATGTTCTCGT; DNA oligonucleotide with modified nucleotide X, X not given here, further chemistry not given here)”, in data set [1], the Tm came out at 66 °C and the ΔTm/mod. result was “+7.0 °C”. In data set [2], the Tm stood at 58 °C and the ΔTm/mod. entry was “+3.5 °C”.

Regarding “5′ -TCTTCZTZTZCTCT-3′: modified oligonucleotide with three separated Z modifications (DNA TCTTCTTTTTCTCT; three Z modified nucleotides; (2)..(2) 2′-Deoxy-5-methylcytidine; (5)..(5) 2′-Deoxy-5-methylcytidine; misc_difference (6)..(6) ENA; misc_difference (8)..(8) ENA; misc_difference (10)..(10) ENA; (11)..(11) 2′-Deoxy-5-methylcytidine; (13)..(13) 2′-Deoxy-5-methylcytidine)”, in data set [3], the ΔTm/mod. entry was “+6.7 °C” and the Tm worked out at 51 °C.

As to “5′-GGAXGXTCTCGT-3′: modified oligonucleotide with two separated X modifications (DNA GGATGTTCTCGT; DNA oligonucleotide with modified nucleotide X, X not given here, further chemistry not given here)”, the Tm was 66 °C in data set [1] and 58 °C in data set [2]. The ΔTm/mod. entry in data set [1] was “+7.0 °C”; in data set [2], “+3.5 °C”.

For the substance “5′ -TCTTCTTYTTCTCT-3′: modified oligonucleotide with one Y modification; C shows 2′-deoxy-5-methylcytidine (DNA TCTTCTTTTTCTCT; Y modified nucleotide; 5-methylcytidines; (2)..(2) 2′-Deoxy-5-methylcytidine; (5)..(5) 2′-Deoxy-5-methylcytidine; misc_difference (8)..(8) LNA; (11)..(11) 2′-Deoxy-5-methylcytidine; (13)..(13) 2′-Deoxy-5-methylcytidine)”, in data set [3], the ΔTm/mod. entry was “+6.0 °C” and the Tm stood at 37 °C.

In the case of “5′ -TCTTCYTYTYCTCT-3′: modified oligonucleotide with three separated Y modifications (DNA TCTTCTTTTTCTCT; three Y modified nucleotides; (2)..(2) 2′-Deoxy-5-methylcytidine; (5)..(5) 2′-Deoxy-5-methylcytidine; misc_difference (6)..(6) LNA; misc_difference (8)..(8) LNA; misc_difference (10)..(10) LNA; (11)..(11) 2′-Deoxy-5-methylcytidine; (13)..(13) 2′-Deoxy-5-methylcytidine)”, in data set [3], the ΔTm/mod. entry is “+6.7 °C” and the Tm came to 51 °C.

Turning to “5′-GGAYGYTCTCGT-3′: modified oligonucleotide with two separated Y modifications (DNA GGATGTTCTCGT; two Y modified nucleotides; misc_difference (4)..(4) LNA; misc_difference (6)..(6) LNA)”, in data set [1], the Tm was 65 °C and the ΔTm/mod. entry was “+6.5 °C”. Besides, in data set [2], the Tm was 58 °C and the ΔTm/mod. entry was “+3.5 °C”.

As to “5′ -TCTTCTZZZTCTCT-3′: modified oligonucleotide with three consecutive Z modifications (DNA TCTTCTTTTTCTCT; three Z modified nucleotides; (2)..(2) 2′-Deoxy-5-methylcytidine; (5)..(5) 2′-Deoxy-5-methylcytidine; misc_difference (7)..(7) ENA; misc_difference (8)..(8) ENA; misc_difference (9)..(9) ENA; (11)..(11) 2′-Deoxy-5-methylcytidine; (13)..(13) 2′-Deoxy-5-methylcytidine)”, in data set [3], the ΔTm/mod. entry was “+5.7 °C” and the Tm came to 48 °C.

On to “5′ -TCTTCTXXXTCTCT-3′: modified oligonucleotide with three consecutive X modifications (DNA TCTTCTTTTTCTCT; three X modified nucleotides; (2)..(2) 2′-Deoxy-5-methylcytidine; (5)..(5) 2′-Deoxy-5-methylcytidine; misc_difference (7)..(7) Me-TaNA; misc_difference (8)..(8) Me-TaNA; misc_difference (9)..(9) Me-TaNA; (11)..(11) 2′-Deoxy-5-methylcytidine; (13)..(13) 2′-Deoxy-5-methylcytidine)”, for which, in data set [3], the ΔTm/mod. entry is “+6.3 °C” and the Tm was 50 °C.

“5′ -TCTTCTYYYTCTCT-3′: modified oligonucleotide with three consecutive Y modifications (DNA TCTTCTTTTTCTCT; three Y modified nucleotides; (2)..(2) 2′-Deoxy-5-methylcytidine; (5)..(5) 2′-Deoxy-5-methylcytidine; misc_difference (7)..(7) LNA; misc_difference (8)..(8) LNA; misc_difference (9)..(9) LNA; (11)..(11) 2′-Deoxy-5-methylcytidine; (13)..(13) 2′-Deoxy-5-methylcytidine)”: in data set [3], the ΔTm/mod. result is “+5.0 °C” and the Tm came out at 46 °C.

For the substance “5′ -TCTTCXTXTXCTCT-3′: modified oligonucleotide with three separated X modifications (DNA TCTTCTTTTTCTCT; three X modified nucleotides; (2)..(2) 2′-Deoxy-5-methylcytidine; (5)..(5) 2′-Deoxy-5-methylcytidine; misc_difference (6)..(6) Me-TaNA; misc_difference (8)..(8) Me-TaNA; misc_difference (10)..(10) Me-TaNA; (11)..(11) 2′-Deoxy-5-methylcytidine; (13)..(13) 2′-Deoxy-5-methylcytidine)”, in data set [3], the ΔTm/mod. result is “+7.3 °C” and the Tm is 53 °C.

Take “5′-GGATGZZCTCGT-3′: modified oligonucleotide with two consecutive Z modifications (DNA GGATGTTCTCGT; two Z modified nucleotides; misc_difference (6)..(6) ENA; misc_difference (7)..(7) ENA)”: the Tm in data set [1] was found to be 64 °C; in data set [2] it was 57 °C. For the same substance, the ΔTm/mod. result in data set [1] is “+6.0 °C”; in data set [2] it was “+3.0 °C”.
